In patent publication US7612071B2, “Compositions and methods employing aminopterin” (Syntrix Biosystems, Inc., priority 2004, dated 2009):
Like-named read-outs stand apart in the source and are kept apart here.

Legend:
[1] = Interpatient oral bioavailability in patients (oral vs intravenous AUC, matched); format: in vivo; settings: human, plasma
Protocol: The term “interpatient oral bioavailability” as used herein refers to the mean oral bioavailability in a population of at least two patients, wherein the oral bioavailability is determined at least once for each patient in the population. The interpatient oral bioavailability may be calculated by dividing the mean population AUC after oral dosing by the mean population AUC after intravenous dosing, wherein the oral and intravenous doses are identical, and expressing the ratio as a percent. In a preferred method, the interpatient oral bioavailability is calculated using matched samples by averaging the oral bioavailabilities obtained for each patient. More specifically, the oral bioavailability is obtained for each patient by dividing the AUC after oral dosing the patient by the AUC after intravenous dosing the same patient with the same dose of antifolate (i.e. the oral and intravenous AUC in each patient are matched and the patients are said to be matched). The interpatient oral bioavailability based on these matched patients is then simply the mean population oral bioavailability expressed as a percent. […] It is sufficient to use a representative number of patients from a particular patient population to establish an interpatient oral bioavailability for that population, where at least 5 patients will be required in order to establish an interpatient oral bioavailability of a population.
The term “oral bioavailability” as used herein refers to the fraction of an antifolate dose given orally that is absorbed into the plasma after a single administration to a patient. A preferred method for determining the oral bioavailability is by dividing the AUC of an antifolate dose given orally by the AUC of the same antifolate dose given intravenously to the same patient, and expressing the ratio as a percent. […]

[2] = Mean intrapatient coefficient of variation of oral bioavailability; format: in vivo; settings: human, plasma, 2 mg/m2; AMT 2 mg/m^2 PO, n=5
From the text: The term “intrapatient coefficient of variation of oral bioavailability” as used herein refers to the coefficient of variation of oral bioavailability of two or more antifolate doses given to the same patient. Specifically, it is the standard deviation of oral bioavailability of the two or more antifolate doses in the same patient divided by the intrapatient oral bioavailability, expressed as a percent.
The term “mean intrapatient coefficient of variation of oral bioavailability” as used herein refers to the average intrapatient coefficient of variation of oral bioavailability for two or more patients.
The intrapatient oral bioavailability and standard deviation of the oral bioavailability were determined among the consecutive doses in a given patient, and the intrapatient coefficient of variation of oral bioavailability calculated for each patient by dividing the standard deviation by the intrapatient oral bioavailability.

[3] = biological target: T1, partially purified chicken liver DHFR (Gallus gallus, UniProt P00378); assay: Radioligand DHFR binding assay; settings: aminopterin compared with methotrexate
T1 sequence (P00378 1-189): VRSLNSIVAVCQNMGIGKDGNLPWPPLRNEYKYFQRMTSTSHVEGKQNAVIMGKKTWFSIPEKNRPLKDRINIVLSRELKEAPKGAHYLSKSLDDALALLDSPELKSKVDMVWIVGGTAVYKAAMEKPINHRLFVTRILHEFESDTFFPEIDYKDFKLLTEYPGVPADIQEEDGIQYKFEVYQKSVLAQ

[4] = Storage of aqueous compositions; format: physicochemical; settings: parenteral, oral liquid or other aqueous compositions
From the text: Because of their ease of administration, tablets and capsules represent the most advantageous oral dosage form in adults, in which case solid pharmaceutical carriers are employed. If desired, tablets may be coated by standard aqueous or nonaqueous techniques. The parenteral dosage form can consist of a sterile solution of the active ingredient, either in its free or salt form, in physiological buffer or sterile water. In addition, parenteral solutions can contain preservatives such as benzalkonium chloride, methyl- or propyl-paraben and chlorobutanol. Suitable pharmaceutical carriers are described in Remington's Pharmaceutical Sciences, a standard reference text in this field. […] Accordingly, such aqueous compositions are best stored desiccated and hydrated within several hours to several days prior to patient administration.

[5] = Potency relative to methotrexate; settings: therapeutically effective amount for the same level of efficacy
[6] = tested on: standard and high-risk ALL; settings: for Coefficient of variation of toxicity of aminopterin as percent of that of methotrexate: both oral; for Therapeutic Component: Percentage effective (no evidence of a disease manifestation): greater than 12 months treatment, AMT 4 mg/m^2/wk high risk ALL (n=20), MTX 100 mg/m^2/wk standard risk ALL (n=20)
[7] = AMT 2 mg/m^2, adult patients, n=13, prior art; cited from earlier work
[8] = prior art; cited from earlier work
[9] = AMT 2 mg/m^2 PO x 2 (n=75), MTX 25 mg/m^2 PO x 4 (n=41)
[10] = AMT 2 mg/m^2 PO x 2 (n=81), MTX 25 mg/m^2 PO x 4 (n=42)
[11] = AMT 2 mg/m^2 PO x 2 (n=104), MTX 25 mg/m^2 PO x 4 (n=63)
[12] = AMT 2 mg/m^2 PO x 2, MTX 25 mg/m^2 PO x 4
[13] = eAMT and eMTX (marrow exposure)

Nc1nc(N)c2nc(CNc3ccc(C(=O)N[C@@H](CCC(=O)O)C(=O)O)cc3)cnc2n1 [AMT]
bioavailability ([1]; 2 mg/m2, AMT 2 mg/m^2, pediatric patients (age 0-21), 15 matched patients, read-out: Interpatient oral bioavailability (%)): 94%
bioavailability ([1]; 2 mg/m2, AMT 2 mg/m^2, pediatric patients, n=15, read-out: Maximum (%) oral bioavailability): 165%
bioavailability ([1]; 2 mg/m2, AMT 2 mg/m^2, pediatric patients, n=15, read-out: Minimum (%) oral bioavailability): 45%
Mean intrapatient coefficient of variation of oral bioavailability [2]: 25%
displacement of tritiated methotrexate and binding to DHFR [3]: equivalent
stability of aqueous compositions (conversion of aminopterin to folic acid) [4]: accumulate folic acid to undesirable levels over the course of six months of storage
potency relative to methotrexate [5]: about 25 times
Event-free survival (EFS) at 24-months, Kaplan Meier ([6]; 25 high risk patients receiving aminopterin, standard risk patients receiving methotrexate): 93%
Coefficient of variation of toxicity, absolute neutrophil count in consolidation [6, 9]: 80%
Mean absolute neutrophil count in consolidation [6, 9]: 1667 cells/μL
Coefficient of variation of toxicity, platelet counts in consolidation [6, 10]: 58%
Mean platelet counts in consolidation [6, 10]: 316 cells × 10^3/μL
Coefficient of variation of toxicity, level of liver enzymes above normal [6, 11]: 25%
Mean level of liver enzymes above normal [6, 11]: 188 IU/L ALT
Coefficient of variation of toxicity, level of liver enzymes above normal ([6]; AMT 2 mg/m^2 PO x 2 (n=104), MTX 25 mg/m^2 PO x 4 (n=63), listed as aminopterin): 25%
Coefficient of variation Relative To The Invention, absolute neutrophil count in consolidation [6, 12]: 1.0
Coefficient of variation Relative To The Invention, level of liver enzymes above normal [6, 12]: 1.0
Coefficient of variation Relative To The Invention, platelet counts in consolidation [6, 12]: 1.0
Patients with severe hepatotoxicity (liver enzyme elevations greater than five times normal) ([6]; AMT 4 mg/m^2/wk (n=104), MTX 100 mg/m^2/wk (n=63)): 5.8%
Therapeutic Component: Antifolate dose ([6]; AMT high risk ALL (n=20), MTX standard risk ALL (n=20), Table V): 4 mg/m^2/wk:
Therapeutic Component: Antifolate dose with same efficacy as MTX at 100 mg/m^2/wk ([6]; AMT high risk ALL (n=20), MTX standard risk ALL (n=20), Table VI): 4 mg/m^2/wk
Therapeutic Index ([6]; Any elevation of liver enzymes): 1
Toxicity Component: Antifolate dose with same toxicity as MTX at 100 mg/m^2/wk ([6]; Any elevation of liver enzymes): 4 mg/m^2/wk
Therapeutic Index ([6]; Elevations in liver enzymes >5 times normal): 1
Toxicity Component: Antifolate dose causing 5.8% of the population to have the toxicity ([6]; Elevations in liver enzymes >5 times normal (severe hepatotoxicity)): 4 mg/m^2/wk
Therapeutic Index ([6]; Hospital admissions): 1
Toxicity Component: Antifolate dose with same toxicity as MTX at 100 mg/m^2/wk ([6]; Hospital admissions): 4 mg/m^2/wk
Therapeutic Index ([6]; Mucositis): 1
Toxicity Component: Antifolate dose with same toxicity as MTX at 100 mg/m^2/wk ([6]; Mucositis): 4 mg/m^2/wk
Therapeutic Index ([6]; Myelosuppression): 1
Toxicity Component: Antifolate dose with same toxicity as MTX at 100 mg/m^2/wk ([6]; Myelosuppression): 4 mg/m^2/wk
Therapeutic Index ([6]; Neutropenia): 1
Toxicity Component: Antifolate dose with same toxicity as MTX at 100 mg/m^2/wk ([6]; Neutropenia): 4 mg/m^2/wk
Therapeutic Index ([6]; Thrombocytopenia): 1
Toxicity Component: Antifolate dose with same toxicity as MTX at 100 mg/m^2/wk ([6]; Thrombocytopenia): 4 mg/m^2/wk
Therapeutic Index ([6]; Treatment interruptions): 1
Toxicity Component: Antifolate dose with same toxicity as MTX at 100 mg/m^2/wk ([6]; Treatment interruptions): 4 mg/m^2/wk
Therapeutic Index [6, 13]: 1
Toxicity Component: Antifolate dose with same toxicity as MTX at 100 mg/m^2/wk [6, 13]: 4 mg/m^2/wk
Coefficient of variation of toxicity of aminopterin as percent of that of methotrexate ([6]; elevated liver enzymes, 2 mg/m^2 aminopterin vs 25 mg/m^2 methotrexate): 71%
Coefficient of variation of toxicity of aminopterin as percent of that of methotrexate ([6]; erythrocyte antifolate levels, 2 mg/m^2 aminopterin vs 20 mg/m^2 methotrexate): 12.4%
Survival rate of high risk patients vs standard risk patients treated with equipotent methotrexate ([6]; follow-up period of up to 15 months, 20 patients per arm): equivalent survival rate
Therapeutic Component: Percentage effective (no evidence of a disease manifestation) [6]: 100% effective at
Therapeutic Component: Percentage effective (no evidence of a disease manifestation) ([6]; listed as aminopterin): 100%
Interpatient oral bioavailability (%) [7]: 85%
Maximum (%) oral bioavailability [7]: 163%
Minimum (%) oral bioavailability [7]: 32%
potency relative to methotrexate [8]: at least 10 times
